From the NIST ThermoML archive (doi:10.1021/je034173q)
Numbers after ± are expanded uncertainties.

Experiments:
[1] = Liquid, Ebulliometric method (Recirculating still)
[2] = molar heat capacity at constant pressure; conditions: 101.33 kPa, Liquid, Small sample (50 mg) DSC

CCC1COC(=O)O1 (centres undefined) [1,2-butylene carbonate]
Conditions	molar heat capacity at constant pressure [J/K/mol]	vapor or sublimation pressure [kPa]
[1], 397.25 K	–	1.9 ± 0.04
[1], 402.93 K	–	2.44 ± 0.05
[1], 409.65 K	–	3.23 ± 0.07
[1], 417.69 K	–	4.45 ± 0.09
[1], 424.67 K	–	5.8 ± 0.12
[1], 432.03 K	–	7.57 ± 0.15
[1], 438.31 K	–	9.43 ± 0.19
[1], 445.57 K	–	12.03 ± 0.24
[1], 453.2 K	–	15.39 ± 0.31
[1], 460.53 K	–	19.28 ± 0.39
[1], 467.68 K	–	23.89 ± 0.48
[1], 474.59 K	–	29.14 ± 0.58
[1], 481.93 K	–	35.77 ± 0.72
[1], 488.3 K	–	42.38 ± 0.85
[1], 495.04 K	–	50.52 ± 1
[1], 501.76 K	–	59.91 ± 1.2
[1], 508.33 K	–	70.54 ± 1.4
[1], 515.54 K	–	83.68 ± 1.7
[1], 522.74 K	–	99.08 ± 2
[2], 283.15 K	192.75 ± 5.8	–
[2], 293.15 K	195.07 ± 5.8	–
[2], 303.15 K	197.4 ± 5.8	–
[2], 313.15 K	199.72 ± 5.8	–
[2], 323.15 K	202.04 ± 5.8	–
[2], 333.15 K	205.52 ± 5.8	–
[2], 343.15 K	207.85 ± 5.8	–
[2], 353.15 K	210.17 ± 5.8	–
[2], 363.15 K	212.49 ± 5.8	–
[2], 373.15 K	214.81 ± 5.8	–

CC1COC(=O)O1 (centres undefined) [4-methyl-1,3-dioxolan-2-one]
Conditions	molar heat capacity at constant pressure [J/K/mol]	vapor or sublimation pressure [kPa]
[1], 459.85 K	–	24.21 ± 0.48
[1], 465.35 K	–	28.46 ± 0.57
[1], 468.45 K	–	31.24 ± 0.63
[1], 471.75 K	–	34.04 ± 0.68
[1], 475.85 K	–	38.09 ± 0.76
[1], 478.35 K	–	40.81 ± 0.82
[1], 482.25 K	–	45.44 ± 0.91
[1], 485.05 K	–	49.16 ± 0.98
[1], 491.25 K	–	57.38 ± 1.1
[1], 494.25 K	–	61.83 ± 1.2
[1], 496.95 K	–	66.33 ± 1.3
[1], 499.45 K	–	70.45 ± 1.4
[1], 501.25 K	–	73.46 ± 1.5
[1], 504.05 K	–	78.67 ± 1.6
[1], 506.65 K	–	83.64 ± 1.7
[1], 508.15 K	–	86.64 ± 1.7
[1], 509.75 K	–	89.87 ± 1.8
[1], 511.15 K	–	92.66 ± 1.9
[1], 513.25 K	–	97.17 ± 1.9
[2], 303.15 K	170.49 ± 5.1	–
[2], 313.15 K	172.53 ± 5.1	–
[2], 323.15 K	174.57 ± 5.1	–
[2], 333.15 K	176.61 ± 5.1	–
[2], 343.15 K	178.66 ± 5.1	–
[2], 353.15 K	180.7 ± 5.1	–
[2], 363.15 K	183.76 ± 5.1	–
[2], 373.15 K	185.8 ± 5.1	–
[2], 383.15 K	188.86 ± 5.1	–
[2], 393.15 K	190.91 ± 5.1	–

O=C1OCCO1 [ethylene carbonate]
Conditions	molar heat capacity at constant pressure [J/K/mol]	vapor or sublimation pressure [kPa]
[1], 451.58 K	–	15.19 ± 0.3
[1], 456.04 K	–	17.52 ± 0.35
[1], 460.15 K	–	19.94 ± 0.4
[1], 466.22 K	–	24.23 ± 0.49
[1], 487.1 K	–	44.69 ± 0.89
[1], 493.67 K	–	53.59 ± 1.1
[1], 500.01 K	–	63.34 ± 1.3
[1], 505.5 K	–	73.45 ± 1.5
[2], 383.15 K	155.87 ± 4.4	–
[2], 388.15 K	156.75 ± 4.4	–
[2], 393.15 K	157.63 ± 4.4	–
[2], 398.15 K	158.51 ± 4.4	–

O=C1OCC(CO)O1 (centres undefined) [glycerine carbonate]
Conditions	molar heat capacity at constant pressure [J/K/mol]	vapor or sublimation pressure [kPa]
[1], 429.91 K	–	0.26 ± 0.01
[1], 432.47 K	–	0.3 ± 0.01
[1], 434.39 K	–	0.33 ± 0.01
[1], 435.94 K	–	0.36 ± 0.01
[1], 438.9 K	–	0.41 ± 0.01
[1], 447.48 K	–	0.62 ± 0.02
[1], 449.41 K	–	0.68 ± 0.02
[1], 452.48 K	–	0.78 ± 0.02
[1], 455.61 K	–	0.9 ± 0.02
[2], 283.15 K	211.38 ± 5.9	–
[2], 293.15 K	213.74 ± 5.9	–
[2], 303.15 K	214.92 ± 5.9	–
[2], 313.15 K	216.1 ± 5.9	–
[2], 323.15 K	217.28 ± 5.9	–
[2], 333.15 K	218.46 ± 5.9	–
[2], 343.15 K	220.82 ± 5.9	–
[2], 353.15 K	223.19 ± 5.9	–
[2], 363.15 K	225.55 ± 7.1	–
[2], 373.15 K	226.73 ± 7.1	–
